Twelve compounds from US10035805B2, “Tricyclic triazolic compounds” (LABORATORIOS DEL DR. ESTEVE S.A., priority 2014, dated 2018) can be followed below.

Molecules are shown by their SMILES. Structures can show the parent of a compound that is named as a salt.

For this assay, the target named is T1, sigma-1 receptor (Cavia porcellus, UniProt Q60492).
T1 construct: Guinea pig brains were homogenized in 10 vols; (w/v) of Tris-HCl 50 mM 0.32 M sucrose; from tissue; host or cells: guinea pig brain membranes
T1 sequence (Q60492 whole entry): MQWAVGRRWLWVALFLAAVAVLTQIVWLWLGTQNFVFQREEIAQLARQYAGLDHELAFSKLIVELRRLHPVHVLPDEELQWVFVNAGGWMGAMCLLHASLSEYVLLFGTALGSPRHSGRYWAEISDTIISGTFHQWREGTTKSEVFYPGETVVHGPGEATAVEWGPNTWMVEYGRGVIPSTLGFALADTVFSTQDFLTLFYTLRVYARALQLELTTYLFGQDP
Put plainly: Sigma-1 receptor radioligand binding assay with [3H]-(+)-pentazocine in guinea pig brain membranes. To be noted: radioligand [3H]-(+)-pentazocine at 5.0 nM, 150 min at 37° C., nonspecific binding with 1 μM haloperidol. The procedure: Brain membrane preparation and binding assays for the al-receptor were performed as described (DeHaven-Hudkins, D. L., L. C. Fleissner, and F. Y. Ford-Rice, 1992, Characterization of the binding of [^3H](+)pentazocine to a recognition sites in guinea pig brain, Eur. J. Pharmacol. 227, 371-378) with some modifications. Guinea pig brains were homogenized in 10 vols. (w/v) of Tris-HCl 50 mM 0.32 M sucrose, pH 7.4, with a Kinematica Polytron PT 3000 at 15000 r.p.m. for 30 s. The homogenate was centrifuged at 1000 g for 10 min at 4° C. and the supernatants collected and centrifuged again at 48000 g for 15 min at 4° C. The pellet was resuspended in 10 volumes of Tris-HCl buffer (50 mM, pH 7.4), incubated at 37° C. for 30 min, and centrifuged at 48000 g for 20 min at 4° C. Following this, the pellet was resuspended in fresh Tris-HCl buffer (50 mM, pH 7.4) and stored on ice until use.
The radioligand used was [^3H]-(+)-pentazocine at 5.0 nM and the final volume was 200 μl. The incubation was initiated with the addition of 100 μl of membrane at a final tissue concentration of approximately 5 mg tissue net weight/mL and the incubation time was 150 m. at 37° C. After incubation, the membranes were collected onto pretreated glass fiber filterplate (MultiScreen-FC, Millipore), with polyethylenimine 0.1%. The filters were washed two times with 200 μl of washing buffer (50 mM Tris Cl, pH=7.4) and then 25 μl of Ecoscint H liquid scintillation cocktail were added. Microplates were allowed to set for several hours and then quantified by liquid scintillation spectrophotometry (1450 Microbeta, Wallac). Nonspecific binding was determined with 1 μM haloperidol.
Turning to `CN1C(=O)c2c(-c3ccccc3)nnn2[C@@H]2CN(Cc3ccccc3)C[C@@H]21` (racemic) [Example 37, (rac)-(5a,8a-cis)-7-benzyl-5-methyl-3-phenyl-5,5a,6,7,8,8a-hexahydro-4H-pyrrolo[3,4-e][1,2,3]triazolo[1,5-a]pyrazin-4-one], the inhibition constant Ki (commonly the dissociation constant of the complex between target and ligand, obtained from inhibition or displacement) was more than 500 nM.

`c1ccc(CN2C[C@@H]3NCc4c(-c5ccccc5)nnn4[C@@H]3C2)cc1` [Example 15, (5aS,8aR)-7-benzyl-3-phenyl-5,5a,6,7,8,8a-hexahydro-4H-pyrrolo[3,4-e][1,2,3]triazolo[1,5-a]pyrazine] had a Ki of less than 100 nM.

On to `c1ccc(CN2C[C@@H]3NCc4c(-c5ccccc5)nnn4[C@H]3C2)cc1` [Example 21, (5aS,8aS)-7-benzyl-3-phenyl-5,5a,6,7,8,8a-hexahydro-4H-pyrrolo[3,4-e][1,2,3]triazolo[1,5-a]pyrazine hydrochloride], for which the Ki is more than 500 nM.

In the case of `c1ccc(CN2C[C@@H]3[C@@H](C2)NCc2c(-c4ccccc4)nnn23)cc1` [Example 22, (5aR,8aR)-7-benzyl-3-phenyl-5,5a,6,7,8,8a-hexahydro-4H-pyrrolo[3,4-e][1,2,3]triazolo[1,5-a]pyrazine hydrochloride], the Ki is less than 100 nM.

The compound `Fc1ccc(CN2C[C@@H]3NCc4c(-c5ccccc5)nnn4[C@H]3C2)cc1` [Example 23, (5aS,8aS)-7-(4-fluorobenzyl)-3-phenyl-5,5a,6,7,8,8a-hexahydro-4H-pyrrolo[3,4-e][1,2,3]triazolo[1,5-a]pyrazine hydrochloride] came in with a Ki of more than 500 nM.

On to `Fc1ccc(CN2C[C@@H]3[C@@H](C2)NCc2c(-c4ccccc4)nnn23)cc1` [Example 24, (5aR,8aR)-7-(4-fluorobenzyl)-3-phenyl-5,5a,6,7,8,8a-hexahydro-4H-pyrrolo[3,4-e][1,2,3]triazolo[1,5-a]pyrazine hydrochloride], for which the inhibition constant (Ki) was less than 100 nM.

Compound `Clc1ccc(CN2C[C@@H]3[C@@H](C2)NCc2c(-c4ccccc4)nnn23)cc1` [Example 25, (5aR,8aR)-7-(4-chlorobenzyl)-3-phenyl-5,5a,6,7,8,8a-hexahydro-4H-pyrrolo[3,4-e][1,2,3]triazolo[1,5-a]pyrazine hydrochloride] came in with a Ki of less than 100 nM.

For the compound `FC(F)(F)c1ccc(CN2C[C@@H]3[C@@H](C2)NCc2c(-c4ccccc4)nnn23)cc1` [Example 26, (5aR,8aR)-3-phenyl-7-(4-(trifluoromethyl)benzyl)-5,5a,6,7,8,8a-hexahydro-4H-pyrrolo[3,4-e][1,2,3]triazolo[1,5-a]pyrazine hydrochloride], the Ki was 100 to 500 nM.

For the compound `c1ccc(-c2nnn3c2CN[C@@H]2CN(CC4CCOCC4)C[C@H]23)cc1` [Example 27, (5aR,8aR)-3-phenyl-7-((tetrahydro-2H-pyran-4-yl)methyl)-5,5a,6,7,8,8a-hexahydro-4H-pyrrolo[3,4-e][1,2,3]triazolo[1,5-a]pyrazine hydrochloride], the Ki lay within 100 to 500 nM.

Consider `Fc1ccccc1-c1nnn2c1CN[C@@H]1CN(Cc3ccccc3)C[C@H]12` [Example 29, (5aR,8aR)-7-benzyl-3-(2-fluorophenyl)-5,5a,6,7,8,8a-hexahydro-4H-pyrrolo[3,4-e][1,2,3]triazolo[1,5-a]pyrazine hydrochloride], for which the inhibition constant (Ki) was less than 100 nM.

Consider `c1ccc(CN2C[C@H]3NCCc4c(-c5ccccc5)nnn4[C@H]3C2)cc1` [Example 34, (6aR,9aS)-8-benzyl-3-phenyl-4,5,6,6a,7,8,9,9a-octahydropyrrolo[3,4-b][1,2,3]triazolo[1,5-d][1,4]diazepine hydrochloride], for which the Ki is 100 to 500 nM.

With `c1ccc(CN2C[C@@H]3NCCc4c(-c5ccccc5)nnn4[C@@H]3C2)cc1` [Example 35, (6aS,9aR)-8-benzyl-3-phenyl-4,5,6,6a,7,8,9,9a-octahydropyrrolo[3,4-b][1,2,3]triazolo [1,5-d][1,4]-diazepine hydrochloride], the inhibitory constant (Ki) was less than 100 nM.
